One data set deals with Streptococcus pyogenes. The note with it: Mueller-Hinton agar, 24 hours at 35° C.
In a further data set the test system is Streptococcus faecalis. To be noted: Mueller-Hinton agar, 24 hours at 35° C.
The next data set concerns Streptococcus algalactia. The note with it: Mueller-Hinton agar, 24 hours at 35° C.
The next data set has as its system Staphylococcus aureus. To be noted: Mueller-Hinton agar, 24 hours at 35° C.
A further data set concerns Bordella bronchiseptica. To be noted: Mueller-Hinton agar, 24 hours at 35° C.
The next data set concerns Vibrio cholerae. To be noted: Mueller-Hinton agar, 24 hours at 35° C.
The test system of the next data set is Pasturella multocida. The note with it: Mueller-Hinton agar, 24 hours at 35° C.
For a further data set, the system named is E. coli. The note with it: Mueller-Hinton agar, 24 hours at 35° C.
Another data set deals with Pseudomonas aerugenosa. To be noted: Mueller-Hinton agar, 24 hours at 35° C.
Another data set relates to Candida albicans. To be noted: Mueller-Hinton agar, 24 hours at 35° C.
The next data set deals with Candida tropicalis. The note with it: Mueller-Hinton agar, 24 hours at 35° C.
A further data set relates to Cryptococcus neoformans. To be noted: Mueller-Hinton agar, 24 hours at 35° C.
A further data set deals with Saccharomyces cervisciae. To be noted: Mueller-Hinton agar, 24 hours at 35° C.
A further data set relates to Aspergillus fumigatus. The note with it: Mueller-Hinton agar, 24 hours at 35° C.
For a further data set, the system named is Aspergillus flavus. The note with it: Mueller-Hinton agar, 24 hours at 35° C.
The test system of another data set is Fusarium solani. To be noted: Mueller-Hinton agar, 24 hours at 35° C.
A further data set has as its system Rhizopus arrihizus. The note with it: Mueller-Hinton agar, 24 hours at 35° C.
Another data set concerns Microsporidium canis. To be noted: Mueller-Hinton agar, 24 hours at 35° C.
The test system of the next data set is Microsporidium gypseum. To be noted: Mueller-Hinton agar, 24 hours at 35° C.
Another data set concerns Trichophyton equinium. To be noted: Mueller-Hinton agar, 24 hours at 35° C.
The test system of data set [1] is Trichophyton mentagrophyt. To be noted: Mueller-Hinton agar, 24 hours at 35° C.
Another data set has as its system Trichophyton rubrum. To be noted: Mueller-Hinton agar, 24 hours at 35° C.
The test system of a further data set is Epidermophyton floccsum. To be noted: Mueller-Hinton agar, 24 hours at 35° C.
For data set [2] the following is noted: as compared to the iodide salt.
A further data set has as its system Botrytis cinerea. As to the kind of experiment: Plant relevant mold panel, microtiter growth inhibition. The format is cell-based. To be noted: Plant relevance: Vegetable; 18° C. for 7 days, optical density 405 nm.
The subject of data set [3] is Colletotrichum lagenarium. The data set is described as above. Type of data set: cell-based. The note with it: Plant relevance: Mellons; 18° C. for 7 days, optical density 405 nm.
The subject of a further data set is Pyrenophora teres. The description is as above. The format is cell-based. The note with it: Plant relevance: Barley; 18° C. for 7 days, optical density 405 nm.
Another data set has as its system Rhizoctonia solani. Described as above. To be noted: Plant relevance: Rice Sheath; 18° C. for 7 days, optical density 405 nm. The format is cell-based.
A further data set deals with Septonia tritici. The description is as above. The note with it: Plant relevance: Wheat Leaf; 18° C. for 7 days, optical density 405 nm. Type of data set: cell-based.
For another data set, the system named is Phytophthora infestans. The note with it: Plant relevance: Tomato; 18° C. for 7 days, optical density 405 nm.
For the next data set, the system named is Pyricularia oryzae. To be noted: Plant relevance: Rice; 18° C. for 7 days, optical density 405 nm.
For data set [4], the system named is roundworms, threadworms, and whipworms. The note with it: reported; U.S. Pat. No. 3,075,975 and 3,085,935; cited from earlier work.

The values below come from patent publication US8124626B2, “Methods of treating inflammations and infections with pyridinium salts” (Mycosol, Inc., priority 2007, dated 2012).

With “1-Ethyl-(E,E)-2,6-bis[2-[4-(pyrrolidinyl)phenyl]ethenyl]pyridinium Chloride [formula I]”, the MIC worked out at 1.0 µg/mL in the data set on Streptococcus pyogenes; 1.0 µg/mL against Streptococcus faecalis; 1.0 µg/mL in the data set on Streptococcus algalactia; 0.3 µg/mL in the data set with Staphylococcus aureus; 1.0 µg/mL in the data set on Bordella bronchiseptica; 10.0 µg/mL against Vibrio cholerae. In addition, the MIC is 3.0 µg/mL in the data set with Pasturella multocida; greater than 100 µg/mL with E. coli; greater than 100 µg/mL with Pseudomonas aerugenosa; less than 0.006 µg/mL in the data set with Candida albicans; less than 0.4 µg/mL in the data set on Candida tropicalis; less than 0.4 µg/mL with Cryptococcus neoformans. Also, the MIC with Saccharomyces cervisciae is less than 0.4 µg/mL; in the data set with Aspergillus fumigatus it was less than 0.006 µg/mL; in the data set on Aspergillus flavus it was 6.25 µg/mL; against Fusarium solani, less than 0.4 µg/mL; with Rhizopus arrihizus, 6.25 µg/mL; with Microsporidium canis, 1.6 µg/mL. The MIC (in the data set on Microsporidium gypseum; against Trichophyton equinium; in data set [1]; against Trichophyton rubrum; in the data set with Epidermophyton floccsum) was 1.6 µg/mL each time. Moreover, the stability entry in [2] is “increased stability”.

Regarding `CC[n+]1c(/C=C/c2ccc(N3CCCC3)cc2)cccc1/C=C/c1ccc(N2CCCC2)cc1.[I-]` [Stilbazium iodide], the IC90 is 0.5 ppm a.i in the data set with Botrytis cinerea; 31 ppm a.i in data set [3]; 31 ppm a.i in the data set with Pyrenophora teres; 2 ppm a.i in the data set on Rhizoctonia solani; 2 ppm a.i with Septonia tritici; 2 ppm a.i in the data set on Phytophthora infestans. In the data set with Pyricularia oryzae, the IC90 is reported as 8 ppm a.i. In data set [4], the anthelmintic effectiveness result was “effective against roundworms, threadworms, and whipworms”.

Broadly, the MIC is the lowest concentration found to suppress growth. High values mean a need for much substance, low ones inhibition by little substance.
